# Measurements from patent US20240280561A1, “COMPOSITIONS AND METHODS FOR TREATING AND/OR IDENTIFYING AN AGENT FOR TREATING INTESTINAL CANCERS” (Dana-Farber Cancer Institute, Inc., priority 2022, published 2024).
# Assays:
# [1] = system: SOX9 expression in HT-115 cells; assay: SOX9 protein expression in CRC cells treated with WNT and TGF-β pathway agents (immunoblot); type: cell-based, human; conditions: CRC cells (HT-115)
# From the text: AXIN2, SOX9 and […] (loading control) protein expression in HT-115 (Apc Mutant) cells treated with DMSO, rWNT3A or indicated concentrations of WNT-inhibitor ICG-001 by immunoblot (middle panel). SOX9 and β-actin (loading control) protein expression in HT-115 cells expressing GFP or dominant-negative (dn) TCF4 (right panel); S.E.=short exposure, L.E.=long exposure. […] Protein expression of SOX9 and β-actin (loading control) in HT-115 cells treated with indicated concentration of rTGF-β or TGF-β inhibitor.
# Immunoblot analysis was performed as previously described (Wong et al. (2018) Nature medicine 24: 968-977). Briefly, cells were lysed in RIPA buffer supplemented with a protease inhibitor cocktail (Roche). Whole cell extracts were resolved by SDS-PAGE, transferred to PVDF membranes, and probed with indicated primary antibodies. Bound antibodies were detected with horseradish peroxidase (HRP)-conjugated secondary antibodies and chemiluminescent HRP substrate.
# The following agents were used: recombinant WNT3A as a Wnt activator and ICG-001 as a Wnt pathway inhibitor, all of which were employed at indicated concentrations and durations.
# To examine whether SOX9 is regulated by stem cell and differentiation cues, the impact of the WNT and BMP/TGF-β signaling pathways on SOX9 expression, respectively, was evaluated. […]
# [2] = system: PROM1 intronic enhancer reporter in HEK293T cells; assay: PROM1 enhancer GFP reporter assay; type: cell-based; conditions: GFP reporter transiently transfected into HEK293T cells
# From the text: A 537-bp region in intron 1 of PROM1 (hg19, ch4:[…], negative strand) was identified as a putative SOX9-regulated enhancer based on V5-SOX9 and H3K27Ac CHIP data. PCR-amplified products or gene blocks (gBlocks, IDT) consisting of the putative PROM1 enhancer, a minimal promoter, eGFP, and PGK-hygromycin resistance cassette was cloned into the lentiviral LV 1-5 backbone vector using Gibson modular assembly platform (Akama-Garren et al. (2016) Sci Rep 6: 16836). Briefly, PROM1 enhancer was generated as a gBlock by adding the following primer sequencing to the 5′ and 3′ end of the 537-bp region, respectively: 5′→3′ Forward (site 1), […] and 5′→3′ Reverse, […] (site 2); the minimal promoter was PCR amplified from the 7TFP WT CDH1 reporter plasmid using the following primer sequences: 5′→3′ Forward (includes site 2), […] and 5′→3′ Reverse, AGGCCTCGGGATTcctagg[…] (includes site 3); eGFP was generated by adding the following primer sequences to the 5′ and 3′ end, respectively: 5′→3′ Forward (site 3), AAACCGCTGTTcctaggAATCCCGAGGCCT and 5′→3′ Reverse, GACCCGACATTagcgctACAGCTTAAGCGG (site 4); and PGK-hygro was PCR amplified from plenti-PGK-hygro-gateway destination vector using the following primers: 5′→3′ Forward (includes site 4), GACCCGACATTagcgct[…] […]
# To investigate the precise mechanism of PROM1 activation, V5-SOX9 and H3K27Ac CHIP-seq data were analyzed. […]
Molecule,SOX9 expression [1],"PROM1 enhancer reporter activity, stimulation [2]"
O=C1[C@H](Cc2ccc(O)cc2)N2C(=O)CCN(C(=O)NCc3ccccc3)[C@H]2CN1Cc1cccc2ccccc12 [ICG-001],reduced SOX9 expression,–
"recombinant WNT3A: recombinant WNT3A used as a Wnt activator (protein, UniProt P56704 19-352, looked up) Protein Wnt-3a: SYPIWWSLAVGPQYSSLGSQPILCASIPGLVPKQLRFCRNYVEIMPSVAEGIKIGIQECQHQFRGRRWNCTTVHDSLAIFGPVLDKATRESAFVHAIASAGVAFAVTRSCAEGTAAICGCSSRHQGSPGKGWKWGGCSEDIEFGGMVSREFADARENRPDARSAMNRHNNEAGRQAIASHMHLKCKCHGLSGSCEVKTCWWSQPDFRAIGDFLKDKYDSASEMVVEKHRESRGWVETLRPRYTYFKVPTERDLVYYEASPNFCEPNPETGSFGTRDRTCNVSSHGIDGCDLLCCGRGHNARAERRREKCRCVFHWCCYVSCQECTRVYDVHTCK",–,3 fold
